Laboratory results reported in patent publication US20130071936A1, “FRET-BASED ZINC(II) ION INDICATOR” (The Florida State University Research Foundation, Inc., priority 2011, published 2013).
Where two headings read alike, the source gives them in different places. Marks after values point to notes of the source that are not given here.

What was measured:
[1] = Spectroscopic data (absorption, emission, fluorescence quantum yield) in CH3CN; assay type: physicochemical; conditions: for λem / λabs (A band) / λabs (D band) / ∈/10^3 (A band) / ∈/10^3 (D band): complexes: Zn(ClO4)2 10 equiv.
Method: Reagents and solvents were purchased from various commercial sources and used without further purification unless otherwise stated. CH3CN (OmniSolv, EMD) were directly used in titration experiments without purification. All reactions were carried out in oven- or flame-dried glassware. Analytical thin-layer chromatography (TLC) was performed using pre-coated TLC plates with silica gel 60 F254 (EMD) or with aluminum oxide 60 F254 neutral (EMD). Flash column chromatography was performed using 40-63 μm (230-400 mesh ASTM) silica gel (EMD) or alumina (80-200 mesh, pH 9-10, EMD) as the stationary phases. Silica and alumina gel was flame-dried under vacuum to remove absorbed moisture before use. ^1H NMR spectra were recorded at 300 MHz on a Varian Mercury spectrometer. ^13C NMR spectra were recorded at 125 MHz, on a Bruker Avance spectrometer. All chemical shifts were reported in δ units relative to tetramethylsilane. High resolution mass spectra were obtained at the Mass Spectrometry Laboratory at Florida State University. ESI spectra were obtained on a JEOL AccuTOF spectrometer. Spectrophotometric and fluorometric titrations were conducted on a Varian Cary 100 Bio UV-Visible Spectrophotometer and a Varian Cary Eclipse Fluorescence Spectrophotometer, respectively, with a 1-cm standard quartz cell. The fluorescence quantum yield was determined by comparison of the integrated area of corrected emission spectrum with reference of N,N′-di-n-octyl-2,6-di-n-octylamino-1,4,5,8-naphthalenetetracarboxylic acid diimide (φf=0.53 in CH2Cl2) as the reference by the literature method. See Thalacker, C.; Röger, C.; Würthner, F. J. Org.

[2] = pKa and effect of pH on emission; assay type: physicochemical
Method: FIG. 10 is a graph depicting the effect of pH on emission spectra of zinc(II) ion chelated FRET donor compound (1) (pH=2.7-10.4).
The titration experiments using zinc(II) ion indicator (4) were also carried out in an aqueous/organic mixed solvent (1:9 MOPS buffer (pH 7.2)/CH3CN). […] (FIG. 9). Comparing to the observations in CH3CN, the fluorescence is rather dim. The loss of fluorescence can be explained by the hydrogen bonding interaction between the protic solvent and the carbonyl groups on NDI, which provides a non-radiative deactivation pathway. See F. Würthner, S. Ahmed, C. Thalacker and T. Debaerdemaeker, Chem. Eur. J., 2002, 8, 4742. […] By extension, the fluorescence of zinc(II) ion indicators (4) and (5) would not be affected by the fluctuations of pH within the physiological range.

[3] = tested on: mitochondria of HeLa (S3) cells transfected with mCerulean3 TOMM-20; assay: Colocalization by confocal fluorescence microscopy with mCerulean3 TOMM-20; assay type: cell-based
Method: FIGS. 13A through 13F are confocal fluorescence images of living HeLa (S3) cells transfected with mCerulean3 TOMM-20 that were incubated with zinc(II) ion indicator (5) (1.8 μM, A-C) and zinc(II) ion indicator (4) (6.0 μM, D-F) for 30 min. FIGS. 13A (zinc(II) ion indicator (5)) and 13D (zinc(II) ion indicator (4)) depict the green channel, λex 405 nm, λem 425-475 nm. FIGS. 13B (zinc(II) ion indicator (5)) and 13E (zinc(II) ion indicator (4)) depict the red channel, λex 543 nm, λem 580-680 nm. FIGS. 13C (zinc(II) ion indicator (5)) and 13F (zinc(II) ion indicator (4)) depict the merged image. Scale bar: 10 μm.
FIGS. 14A through 14F are confocal fluorescence images of live HeLa (S3) cells transfected with mCer3 TOMM20 that were incubated with FRET acceptor compound (3) (9.0 μM, A-C) and FRET acceptor compound (2) (52 μM, D-F) for 30 min. FIGS. 14A (FRET acceptor compound (3)) and 14D (FRET acceptor compound (2)) depict the green channel, λex 405 nm, λem 425-475 nm. FIGS. 14B (FRET acceptor compound (3)) and […] (FRET acceptor compound (2)) depict the red channel, λex 543 nm, λem 580-680 nm. FIGS. 14C (FRET acceptor compound (3)) and […] (FRET acceptor compound (2)) depict the merged image. Scale bar: 10 μm.
The colocalization properties of red-emitting compounds (2-5) were studied using HeLa (S3) cells transfected with mCerulean3 TOMM-20, a cyan fluorescent protein (CFP) fused with a mitochondrial targeting sequence whose emission is shown in the green channel. See FIG. 13A for emission spectrum from cells incubated with TPP-containing zinc(II) ion indicator (5), and see FIG. 13D for emission spectrum from cells incubated with zinc(II) ion indicator (4). […] The overall intracellular fluorescence intensity from zinc(II) ion indicator (4) is low, which is consistent with the observed weak fluorescence of the NDI fluorophore in aqueous solutions.
The localization properties of (2-5) were determined via costaining experiments using mCerulean3 TOMM-20, a mitochondrial-specific fusion of the cyan fluorescent protein (CFP) mCerulean3. mCerulean3 is a bright monomeric FP with an emission maximum of 475 nm. HeLa S3 cells were seeded onto Bioptechs Delta-T dishes 48 h prior to experimentation, then transfected about 24 h prior to loading the indicator using an Effectene Transfection Reagent Kit (Qiagen) and 1 μg of DNA. A 1:1 mixture of Dulbecco's modified Eagle's medium and Ham's F-12 (Invitrogen) supplemented with 12.5% fetal bovine serum was used as the culture medium. On the day of experimentation cells were rinsed twice with media and incubated with indicator 5 (1.8 μM) for 30 min. Prior to imaging cells were again rinsed twice with media, then provided with 1 mL of fresh media.
All cells were imaged using an Olympus Fluoview FV1000 confocal laser scanning microscope with an Olympus PLAPO 60× oil-immersion objective (NA=1.4). During experimentation cells were maintained at 37° C. and 5.0% CO2 using a Bioptechs Delta T4 Culture Dish Controller. Individual cells were imaged sequentially in two channels, using a 543 nm Helium-Neon laser line to excite the indicator and a 405 nm diode laser line to excite the FP. Cells were selected by the quality of FP expression, as the indicators tended to load homogenously into the cells. All data was collected using FluoView Software (Olympus). Laser power and detection settings were optimized for each image to fill LUTs. A pinhole size of 200 μm was used for each image. […]

[4] = tested on: mitochondrial zinc(II) in HeLa (S3) cells; assay: Zinc(II) supplementation experiment, fluorescence microscopy; assay type: cell-based; conditions: indicator 1.8 μM, 50 μM ZnCl2, λex 405 nm, λem 580-680 nm
Method: FIGS. 15A and 15B are fluorescence images of HeLa (S3) cells incubated with compound (5) (1.8 μM). FIG. 15A depicts no zinc(II) added, and FIG. 15B depicts fluorescence in the presence of 50 μM ZnCl2. A 405 nm diode laser line was used for excitation. λem 580-680 nm. Scale bar: 10 μm. The DIC images are included in FIGS. 16A and 16B.
FIGS. 16A and 16B are DIC and fluorescence overlay images of HeLa (S3) cells incubated with compound (5) (1.8 μM). FIG. 16A depicts no zinc(II) added, and FIG. 16B depicts emission in the presence of 50 μM ZnCl2. A 405 nm diode laser line was used for excitation. λem 580-680 nm. Scale bar: 10 μm.
See also FIGS. 16A and 16B. […] The addition of zinc(II) ion indicator (5) to the group of very few synthetic indicators that target mitochondrial zinc(II) shall aid the characterization of mitochondrial zinc(II) which is intimately correlated to the chemistry of reactive oxygen species (ROS). See E. Tomat, E. M. Nolan, J. Jaworski and S. J. Lippard, J. Am. Chem. Soc., 2008, 130, 15776; G. Masanta, C. S. Lim, H. J. Kim, J. H. Han, H. M. Kim and B. R. Cho, J. Am. Chem. Soc., 2011, 133, 5698; Y. Qin, P. J. Dittmer, J. G. Park, K. B. Jansen and A. E. Palmer, Proc. Nat. Acad. Sci. USA, 2011, 108, 7351; and S. L. Sensi, D. Ton-That, P. G. Sullivan, E. A. Jonas, K. R. Gee, L. K. Kaczmarek and J. H. Weiss, Proc. Natl. Acad. Sci. U.S.A., 2003, 100, 6157. […]

[5] = CH3CN, data taken from Younes et al. J. Org. Chem. 2009, cited from earlier work
[6] = λex = 400 nm, Zn(ClO4)2 10 equiv.

| Compound | λabs [1] [nm] | ∈/10^3 [1] | λem [1] [nm] | φf ([1]; λex = 565 nm) | λabs (A band) [1] | λabs (D band) [1] | ∈/10^3 (A band) [1] | ∈/10^3 (D band) [1] | further results |
| --- | --- | --- | --- | --- | --- | --- | --- | --- | --- |
| COc1ccc(/C=C/c2ccc(-c3ccc(C)cn3)nc2)cc1 [(1), 5-(4-methoxystyryl)-5′-methyl-2,2′-bipyridine] | 345 | 34 10^3 M^-1 cm^-1 | 428 |  |  |  |  |  | φf ([1]; λex = 365 nm): 0.28^a; pKa [2]: 4.6 |
| COCCCNc1cc2c3c(c(NCCCOC)cc4c3c1C(=O)N(CCCOC)C4=O)C(=O)N(CCCOC)C2=O [Compound (2)] | 607 | 22 10^3 M^-1 cm^-1 | 638 | 0.51^c |  |  |  |  |  |
| COCCCNc1cc2c3c(c(NCCCCC[P+](c4ccccc4)(c4ccccc4)c4ccccc4)cc4c3c1C(=O)N(CCCOC)C4=O)C(=O)N(CCCOC)C2=O [Compound (3)] | 607 | 23 10^3 M^-1 cm^-1 | 639 | 0.48^c |  |  |  |  |  |
| COCCCN1C(=O)c2cc(NCCOc3ccc(/C=C/c4ccc(-c5ccc(COCCOCCOC)cn5)nc4)cc3)c3c4c(cc(NCCCCC[P+](c5ccccc5)(c5ccccc5)c5ccccc5)c(c24)C1=O)C(=O)N(CCCOC)C3=O.[I-] [Compound (5)] |  |  | 633 | 0.28^c | 602 (A) nm | 347 (D) nm | 23 10^3 M^-1 cm^-1 | 81 10^3 M^-1 cm^-1 | colocalization with mitochondrial CFP (mCerulean3 TOMM-20) ([3]; 30 min incubation, (5) 1.8 μM, (4) 6.0 μM, (3) 9.0 μM, (2) 52 μM): localizes selectively in mitochondria; overall intracellular fluorescence intensity ([3]; red channel λex 543 nm, λem 580-680 nm): surprisingly strong intracellular fluorescence; red channel fluorescence upon addition of supplemental zinc(II) in the growth media [4]: increase in intramolecular fluorescence |
| COc1ccc(/C=C/c2ccc(-c3ccc(C)cn3)nc2)cc1.[Zn+2] [[Zn(1)]^2+] |  |  |  |  |  |  |  |  | φf ([5]; λex = 365 nm): 0.46^a; λabs [5]: 374 nm; λem [5]: 528 nm; ∈/10^3 [5]: 28 10^3 M^-1 cm^-1; change of fluorescence intensity with pH ([2]; range of pH 6.0-9.0, intensity at 460 nm, λex 380 nm): little change |
| COCCCNc1cc2c3c(c(NCCOc4ccc(/C=C/c5ccc(-c6ccc(COCCOCCOC)cn6)nc5)cc4)cc4c3c1C(=O)N(CCCOC)C4=O)C(=O)N(CCCOC)C2=O.[Zn+2] [[Zn(4)]^2+] |  |  | 633 |  | 600 (A) nm | 360 (D) nm | 21 10^3 M^-1 cm^-1 | 55 10^3 M^-1 cm^-1 | φf [1, 6]: 0.31^e |
| COCCCN1C(=O)c2cc(NCCOc3ccc(/C=C/c4ccc(-c5ccc(COCCOCCOC)cn5)nc4)cc3)c3c4c(cc(NCCCCC[P+](c5ccccc5)(c5ccccc5)c5ccccc5)c(c24)C1=O)C(=O)N(CCCOC)C3=O.I.[Zn+2] [[Zn(5)]^2+] |  |  | 633 |  | 602 (A) nm | 363 (D) nm | 21 10^3 M^-1 cm^-1 | 67 10^3 M^-1 cm^-1 | φf [1, 6]: 0.29^e |
